# From PMC5534107, “Sensitization of ASIC3 by proteinase-activated receptor 2 signaling contributes to acidosis-induced nociception” (Journal of Neuroinflammation, 2017)
# Assays:
# [1] = test system: ASIC3 currents in CHO cells co-expressing ASIC3 and PAR2; test: Whole-cell patch clamp of proton-gated currents (I pH 6.6) in CHO cells co-expressing ASIC3 and PAR2; assay type: cell-based, Chinese hamster
# Experimental: (§1) ASIC3, ASIC1a, ASIC1b, ASIC2b, and PAR2 complementary DNAs (cDNAs) were used for heterologous expression in CHO cells as described previously (Wang et al., 2013). In brief, CHO cells were cultured at 37 °C in a humidified atmosphere of 5% CO2 and […] and passaged twice a week. Transient transfection of CHO cells was performed using HilyMax liposome transfection reagent (Dojindo Laboratories). CHO cells were maintained in F-12 Nutrient Mixture (added 1.176 g of NaHCO3/L medium) supplemented with 10% fetal bovine serum and 1% gluta-MAXTM-1 (100×; Invitrogen). When ASIC3 and PAR2 cDNAs were co-transfected, the ratio was kept at 1:1. All plasmids used contained, in addition to the desired ASIC3 cDNA, the coding sequence for enhanced green fluorescent protein to aid identification of transfected cells. Electrophysiological measurements were performed 24–48 h after transfection.
# (§2) Whole-cell patch clamp and voltage clamp recordings were carried out at room temperature (22–25 °C) using a MultiClamp-700B amplifier and Digidata-1440A A/D converter (Axon Instruments, CA, USA). Recording pipettes were pulled using a Sutter P-97 puller (Sutter Instruments, CA, USA). The micropipettes were filled with internal solution containing (mM) KCl 140, MgCl2 2.5, HEPES 10, EGTA 11, and ATP 5; its pH was adjusted to 7.2 with KOH, and osmolarity was adjusted to 310 mOsm/L with sucrose. Cells were bathed in an external solution containing (mM) NaCl 150, KCl 5, CaCl2 2.5, MgCl2 2, HEPES 10, D-glucose 10; its osmolarity was adjusted to 330 mOsm/L with sucrose and its pH to 7.4. The resistance of the recording pipette was in the range of 3–6 MΩ. A small patch of membrane underneath the tip of the pipette was aspirated to form a giga seal, and then, a negative pressure was applied to rupture it, thus establishing a whole-cell configuration. The series resistance was compensated for by 70–80%. The adjustment of capacitance compensation was also done before recording the membrane currents. The membrane voltage was maintained at −60 mV in all voltage clamp experiments unless otherwise specified. Current clamp recordings were obtained by switching to current clamp mode after a stable whole-cell configuration was formed in voltage clamp mode. Only cells with a stable resting membrane potential (more negative than −50 mV) were used in the study. Signals were sampled at 10 to 50 kHz and filtered at 2 to 10 kHz, and the data were stored in compatible PC computer for off-online analysis using the pCLAMP 10 acquisition software (Axon Instruments, CA, USA).
# Drugs purchased from Sigma and used in the experiments include hydrochloric acid, 2-furoyl-LIGRLO-NH2 (a PAR2-activating peptide (PAR2-AP)), trypsin, FSLLRY-NH2, APETx2, and capsazepine. Different pH values were configured with hydrochloric acid and external solution. All drugs were dissolved daily in the external solution just before use and held in a linear array of fused silica tubes (o.d./i.d. = 500 μm/200 μm) connected to a series of independent reservoirs. The application pipette tips were positioned ∼30 μm away from the recorded neurons. The application of each drug was driven by gravity and controlled by the corresponding valve, and rapid solution exchange could be achieved within about 100 ms by shifting the tubes horizontally with a PC-controlled micromanipulator. Cells were constantly bathed in normal external solution flowing from one tube connected to a larger reservoir between drug applications. In some experiments where GDP-β-S (Sigma), U-73122(Sigma), and GF109203X (RBI) were applied for intracellular dialysis through recording patch pipettes, they were dissolved in the internal solution before use. To ensure that the cell interior was perfused with the dialysis drug, there was at least a 30-min interval between the establishment of whole-cell access and the current measurement. […]
# rats = test: Nociceptive behavior (flinches) induced by intraplantar acetic acid in rats; assay type: in vivo, rat; conditions: n = 10
# Experimental: Rats were placed in a 30 × 30 × 30 cm Plexiglas chamber and allowed to habituate for at least 30 min before nociceptive behavior experiments. A blind experiment was carried out. Separate groups of rats were coded and pretreated with 20 μl capsazepine (100 μM) together with vehicle and different dosages of PAR2-AP, FSLLRY-NH2, or APETx2 in the ipsilateral hind paw before injection of acetic acid. […] And nociceptive behavior (that is, number of flinches) was counted over a 5-min period starting immediately after the injection.
# We finally ascertain whether PAR2-AP facilitates pain-related behaviors through interacting with ASIC3 in vivo. Acetic acid (0.6%) was injected into the right hind paws of rats and measured the number of flinches that the animals spent licking and/or lifting the injected paw. Intraplantar injection of acetic acid elicits an intense flinch/shaking response which mainly occurred during 0–5 min after injection of acetic acid. […] However, the low dose (1 μg) of PAR2-AP had no effect on the acidosis-induced nocifensive behaviors (Bonferroni’s post hoc test, P > 0.1, n = 10). In addition, the exacerbating effect of 10 μg PAR2-AP on acidosis-induced nocifensive behaviors was blocked by co-administration of 20 μg FSLLRY-NH2, a selective PAR2 antagonist (Bonferroni’s post hoc test, P < 0.01, compared with 10 μg PAR2-AP alone, n = 10; Fig. 6a).
# [2] = test system: ASIC3-like currents in rat DRG neurons; test: Voltage clamp of proton-evoked ASIC3-like currents in acutely isolated rat DRG neurons; assay type: cell-based
# Excerpt: (§3) The experimental protocol was approved by the animal research ethics committee of Hubei University of Science and Technology (No. 2016–67). All procedures conformed to international guidelines on the ethical use of animals, and every effort was made to minimize the number of animals used and their sufferings. Five- to 6-week-old Sprague–Dawley male rats were anesthetized with 7% chloral hydrate and then decapitated. The DRGs were taken out and transferred immediately into Dulbecco’s modified Eagle’s medium (DMEM, Sigma) at pH 7.4. After the removal of the surrounding connective tissues, the DRGs were minced with fine spring scissors and the ganglion fragments were placed in a flask containing 5 ml of DMEM in which trypsin (type II-S, Sigma) 0.5 mg/ml, collagenase (type I-A, Sigma) 1.0 mg/ml, and DNase (type IV, Sigma) 0.1 mg/ml had been dissolved and incubated at 35 °C in a shaking water bath for 25–30 min. Soybean trypsin inhibitor (type II-S, Sigma) 1.25 mg/ml was then added to stop trypsin digestion. The incubating solution was then replaced by external solution. Dissociated neurons were placed into a 35-mm Petri dish and kept for at least 1 h in normal external solution before the start of electrophysiological experiments. After plating of the DRG neurons, the neurons were used for experiments within 24 h. The neurons selected for electrophysiological experiment were 15–35 μm in diameter.
# as §2, with “The membrane voltage was maintained at −60 mV in all voltage clamp experiments unless otherwise specified. Current clamp recordings were obtained by switching to current clamp mode after a stable whole-cell configuration was formed in voltage clamp mode. Only cells with a stable resting membrane potential (more negative than −50 mV) were used in the study. Signals were sampled at 10 to 50 kHz and filtered at 2 to 10 kHz, and the data were stored in compatible PC computer for off-online analysis using the pCLAMP 10 acquisition software (Axon Instruments, CA, USA).” left out
# (§4) Drugs purchased from Sigma and used in the experiments include hydrochloric acid, 2-furoyl-LIGRLO-NH2 (a PAR2-activating peptide (PAR2-AP)), trypsin, FSLLRY-NH2, APETx2, and capsazepine. […] The application pipette tips were positioned ∼30 μm away from the recorded neurons. […]
# rat DRG neurons = test: Current clamp of acidosis-evoked action potentials (spikes) in rat DRG neurons; assay type: cell-based; conditions: APETx2 2 μM; pH 6.6 for 5 s; capsazepine 10 μM
# Excerpt: as §3, with “Dissociated neurons were placed into a 35-mm Petri dish and kept for at least 1 h in normal external solution before the start of electrophysiological experiments. After plating of the DRG neurons, the neurons were used for experiments within 24 h. The neurons selected for electrophysiological experiment were 15–35 μm in diameter.” left out
# as §4
# [3] = test system: ASIC3 currents in CHO cells expressing alone ASIC3, but not expressing PAR2; test: Whole-cell patch clamp, CHO cells expressing ASIC3 alone (no PAR2); assay type: cell-based, Chinese hamster; conditions: 10^−5 M; P > 0.1; n = 10
# Experimental: as §1
# Whole-cell patch clamp and voltage clamp recordings were carried out at room temperature (22–25 °C) using a MultiClamp-700B amplifier and Digidata-1440A A/D converter (Axon Instruments, CA, USA). […]
# as §4
molecule,measurement,setting,value
CN(C)CCCn1cc(C2=C(c3c[nH]c4ccccc34)C(=O)NC2=O)c2ccccc21 [GF109203X],PAR2-AP-induced increase of I pH 6.6 with GF109203X in the pipette solution,"[1]; GF109203X 2 μM intracellular dialysis, PAR2-AP 10^−5 M for 1 min, n = 10",3.2 ± 6.0%
O=S(=O)(NCCNC/C=C/c1ccc(Br)cc1)c1cccc2cnccc12 [H-89],PAR2-AP-induced increase of I pH 6.6 with H-89 in the pipette solution,"[1]; H-89 10 μM intracellular dialysis, PAR2-AP 10^−5 M for 1 min, n = 10",15.3 ± 5.8%
COc1ccc2c(c1)CC[C@@H]1[C@@H]2CC[C@]2(C)[C@@H](NCCCCCCN3C(=O)C=CC3=O)CC[C@@H]12 [U-73122],PAR2-AP-induced increase of I pH 6.6 with U-73122 in the pipette solution,"[1]; U-73122 10 μM intracellular dialysis, PAR2-AP 10^−5 M for 1 min, n = 10",6.9 ± 2.8%
APETx2,effect on acetic acid-induced nociceptive response,"rats; APETx2 20 μM, 20 μl intraplantar, P < 0.01",potently blocked
same,effect on increased pain behavior induced by 10 μg PAR2-AP,"rats; APETx2 20 μM, 20 μl intraplantar, P < 0.01 vs PAR2-AP",potently inhibited
same,effect on peak ASIC current (I pH 6.6),[1]; APETx2 500 nM,inhibited the peak ASIC current
same,effect on sustained plateau current (I pH 6.6),[1]; APETx2 500 nM,without affecting the sustained plateau
same,effect on proton-induced ASIC current (I pH 6.6) in DRG neurons,"[2]; APETx2 2 μM, eight DRG neurons, capsazepine 10 μM",completely blocked
same,effect on acidosis-evoked spikes,rat DRG neurons,completely blocked
FSLLRY-NH2,effect on exacerbation of acidosis-induced nocifensive behaviors by 10 μg PAR2-AP,"rats; FSLLRY-NH2 20 μg co-administered, P < 0.01 vs 10 μg PAR2-AP alone",blocked
same,change of peak amplitude of I pH 6.6 after pretreatment with FSLLRY-NH2 alone,[1]; 10^−5 M,≤ 5%
same,PAR2-AP-induced increase of ASIC3 currents in cells pretreated with FSLLRY-NH2,"[1]; PAR2-AP 10^−5 M + FSLLRY-NH2 10^−5 M, n = 10, P < 0.01 vs PAR2-AP alone",7.3 ± 7.1%
same,trypsin-induced increase of ASIC3 currents in cells pretreated with FSLLRY-NH2,"[1]; trypsin 10^−5 M + FSLLRY-NH2 10^−5 M, n = 10",8.4 ± 6.2%
same,effect of FSLLRY-NH2 on trypsin potentiation of ASIC currents in DRG neurons,"[2]; FSLLRY-NH2 10^−5 M, trypsin 10^−5 M",inhibited
same,increase of peak amplitude of I pH 6.6 in DRG neurons when PAR2-AP co-treated with FSLLRY-NH2,"[2]; PAR2-AP 10^−5 M + FSLLRY-NH2 10^−5 M, capsazepine 10 μM, n = 9, P < 0.01 vs PAR2-AP alone",9.3 ± 44%
"trypsin: protease, possible physiological ligand of PAR2; cleaves and activates PAR2",increase of peak amplitude of I pH 6.6 after pretreatment with agonist alone,"[1]; 10^−5 M for 1 min, n = 10",48.7 ± 8.3%
same,effect on I pH 6.6 in ASIC3-transfected CHO cells without PAR2,[3],Neither PAR2-AP nor trypsin had an effect
